Laboratory results published in patent US9957264B2 (Merck Sharp & Dohme Corp., priority 2013, dated 2018).

How the values were obtained:
[1] = target: JAK1 (recombinant purified GST-tagged catalytic domain) (Homo sapiens (Human), UniProt P23458); test: Jak Biochemical HTRF Assay (JAK1); conditions: [ATP] 31.8 μM
In short: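 Compounds in DMSO were pre-equilibrated with enzyme and biotinylated peptide, then ATP was added and the reaction proceeded 120 min at room temperature. EDTA-based stop buffer with detection reagents was added, and after 60 min the time-resolved FRET ratio was read. IC50s came from 4-parameter dose–response fits.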

[2] = target: JAK2 (recombinant purified GST-tagged catalytic domain) (Homo sapiens (Human), UniProt O60674); test: Jak Biochemical HTRF Assay (JAK2); conditions: [ATP] 8.5 μM
JAK2 (recombinant purified GST-tagged catalytic domain), sequence (O60674 849-1124): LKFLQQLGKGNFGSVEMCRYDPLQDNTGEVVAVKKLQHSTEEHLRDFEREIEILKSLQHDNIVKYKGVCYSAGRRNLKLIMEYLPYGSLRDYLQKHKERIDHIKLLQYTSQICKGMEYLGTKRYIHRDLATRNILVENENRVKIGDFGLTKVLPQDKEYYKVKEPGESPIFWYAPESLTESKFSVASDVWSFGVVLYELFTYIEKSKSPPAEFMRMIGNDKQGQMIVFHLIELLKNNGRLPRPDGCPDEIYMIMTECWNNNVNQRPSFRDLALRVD

JAK1 (recombinant purified GST-tagged catalytic domain), sequence (P23458 875-1153): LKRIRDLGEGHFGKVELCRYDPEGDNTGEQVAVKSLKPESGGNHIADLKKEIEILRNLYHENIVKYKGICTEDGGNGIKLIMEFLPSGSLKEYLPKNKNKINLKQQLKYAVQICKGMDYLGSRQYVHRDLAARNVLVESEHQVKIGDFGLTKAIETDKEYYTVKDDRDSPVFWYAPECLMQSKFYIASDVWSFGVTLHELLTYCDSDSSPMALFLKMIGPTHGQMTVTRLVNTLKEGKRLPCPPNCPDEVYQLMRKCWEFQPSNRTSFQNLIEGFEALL

Structure (SMILES)	IC50 [1] [nM]	IC50 [2] [nM]
CN(C)[C@H]1CC[C@](CC#N)(n2nc(Nc3ccc4c(c3)CN(C(C)(C)C)S4(=O)=O)c3c(=O)[nH]ccc32)CC1 [Example 18-37, Trans 2-(1-(3-((2-(tert-butyl)-1,1-dioxido-2,3-dihydrobenzo[d]isothiazol-5-yl)amino)-4-oxo-4,5-dihydro-1H-pyrazolo[4,3-c]pyridin-1-yl)-4-(dimethylamino)cyclohexyl)acetonitrile]	0.23	4.43
CC(C)NC(C)(C)c1ccc(Nc2nn(C3(CC#N)CCN(C(=O)OC(C)(C)C)CC3)c3cc[nH]c(=O)c23)cc1 [Example 5-276, tert-butyl 4-(cyanomethyl)-4-{3-[(4-{1-methyl-1-[(1-methylethyl)amino]ethyl}phenyl)amino]-4-oxo-4,5-dihydro-1H-pyrazolo[4,3-c]pyridin-1-yl}piperidine-1-carboxylate]	0.57	0.4
CC(C)(C)OC(=O)N1CCC(CC#N)(n2nc(Nc3ccc(C(F)(F)F)cc3)c3c(=O)[nH]ccc32)CC1 [Example 5-8, tert-butyl 4-(cyanomethyl)-4-(4-oxo-3-{[4-(trifluoromethyl)phenyl]amino}-4,5-dihydro-1H-pyrazolo [4,3-c]pyridin-1-yl) piperidine-1-carboxylate]	1.96	20
Cc1cc(Nc2nn(C3(CC#N)CCN(C(=O)OC(C)(C)C)CC3)c3cc[nH]c(=O)c23)ccc1C(=O)N1C2CCC1COC2 [Example 21-13, tert-butyl 4-(cyanomethyl)-4-{3-[(5-methyl-4-{3-oxa-8-azabicyclo[3.2.1]octan-8-ylcarbonyl}cyclohexa-1,3,5-trien-1-yl)amino]-4-oxo-5H-pyrazolo[4,3-c]pyridin-1-yl}piperidine-1-carboxylate]	0.27	0.2
CN(C)S(=O)(=O)c1ccc(Nc2nn(C3(CC#N)CCN(Cc4ccccc4F)CC3)c3cc[nH]c(=O)c23)cc1 [Example 8-9, 4-({1-[4-(cyanomethyl)-1-(2-fluorobenzyl)piperidin-4-yl]-4-oxo-4,5-dihydro-1H-pyrazolo[4,3-c]pyridin-3-yl}amino)-N,N-dimethylbenzenesulfonamide]	0.19	0.28
CC(C)OC(=O)N1CCC(CC#N)(n2nc(Nc3ccnc(F)c3)c3c(=O)[nH]ccc32)CC1 [Example 13-1, isopropyl-4-(cyanomethyl)-4-(3-(2-fluoropyridin-4-ylamino)-4-oxo-4,5-dihydropyrazolo[4,3-c]pyridin-1-yl)piperidine-1-carboxylate]	0.22	3.82
CC(C)N1Cc2cc(Nc3nn(C4(CC#N)CCCC4)c4cc[nH]c(=O)c34)ccc2C1=O [Example 5-129, 2-(1-(3-((2-isopropyl-1-oxoisoindolin-5-yl)amino)-4-oxo-4,5-dihydro-1H-pyrazolo[4,3-c]pyridin-1-yl)cyclopentyl)acetonitrile]	2.07	3.54
CC(C)(C)OC(=O)N1CC[C@@](CC#N)(n2nc(Nc3ccc(S(C)(=O)=O)cc3)c3c(=O)[nH]ccc32)[C@H](F)C1 (single isomer, unassigned) [Example 5-15, tert-butyl (3R,4S or 3S,4R)-4-(cyanomethyl)-3-fluoro-4-(3-{[4-(methylsulfonyl)phenyl]amino}-4-oxo-4,5-dihydro-1H-pyrazolo[4,3-c]pyridin-1-yl)piperidine-1-carboxylate]	0.27	3.45
CC(C)(C)OC(=O)[C@@H]1CC[C@@](CC#N)(n2nc(Nc3ccccc3)c3c(=O)[nH]ccc32)CO1 [Example 5-54, (2S,5S)-tert-butyl 5-(cyanomethyl)-5-(4-oxo-3-(phenylamino)-4,5-dihydro-1H-pyrazolo[4,3-c]pyridin-1-yl)tetrahydro-2H-pyran-2-carboxylate]	0.12	1.62
CO[C@H](c1ccc(Nc2nn([C@]3(CC#N)CC[C@@H](C(=O)OC(C)(C)C)OC3)c3cc[nH]c(=O)c23)cc1)C(F)(F)F (single isomer, unassigned) [Example 21-7, (2S,5S)-tert-butyl 5-(cyanomethyl)-5-(4-oxo-3-((4-((R or S)-2,2,2-trifluoro-1-methoxyethyl)phenyl)amino)-4,5-dihydro-1H-pyrazolo[4,3-c]pyridin-1-yl)tetrahydro-2H-pyran-2-carboxylate]	0.41	0.9

Continued, values first:

IC50 [1] [nM]	IC50 [2] [nM]	Structure (SMILES)
0.09	0.19	CC1(C)C(=O)Nc2cc(Nc3nn([C@]4(CC#N)CCCOC4)c4cc[nH]c(=O)c34)ccc21 [Example 21-4, [(3S)-3-{3-[(3,3-dimethyl-2-oxo-2,3-dihydro-1H-indol-6-yl)amino]-4-oxo-4,5-dihydro-1H-pyrazolo[4,3-c]pyridin-1-yl}tetrahydro-2H-pyran-3-yl]acetonitrile]
0.11	0.09	CC(C)(C)N[C@H](c1ccc(Nc2nn([C@]3(CC#N)CCOC[C@@H]3F)c3cc[nH]c(=O)c23)cc1)C(F)(F)F (single isomer, unassigned) [Example 5-269, 2-((3R,4R or 3S,4S)-4-(3-((4-((R or S)-1-(tert-butylamino)-2,2,2-trifluoroethyl)phenyl)amino)-4-oxo-4,5-dihydro-1H-pyrazolo[4,3-c]pyridin-1-yl)-3-fluorotetrahydro-2H-pyran-4-yl)acetonitrile]
0.12	0.61	CC(C)(C)OC(=O)N1CCC(CC#N)(n2nc(Nc3ccc4c(c3)CCC4=O)c3c(=O)[nH]ccc32)CC1 [Example 5-12, tert-butyl 4-(cyanomethyl)-4-(4-oxo-3-((1-oxo-2,3-dihydro-1H-inden-5-yl)amino)-4,5-dihydro-1H-pyrazolo[4,3-c]pyridin-1-yl)piperidine-1-carboxylate]
0.07	0.77	Cc1ccc2cc(Nc3nn([C@]4(CC#N)CC[C@@H](C(=O)OC(C)(C)C)OC4)c4cc[nH]c(=O)c34)ccc2n1 [Example 5-217, (2S,5S)-tert-butyl 5-(cyanomethyl)-5-(3-((2-methylquinolin-6-yl)amino)-4-oxo-4,5-dihydro-1H-pyrazolo[4,3-c]pyridin-1-yl)tetrahydro-2H-pyran-2-carboxylate]
0.08	1.5	CC(C)(C)OC(=O)CN1Cc2cc(Nc3nn([C@]4(CC#N)CCCOC4)c4cc[nH]c(=O)c34)ccc2S1(=O)=O [Example 5-185, tert-butyl [5-({1-[(3S)-3-(cyanomethyl)tetrahydro-2H-pyran-3-yl]-4-oxo-4,5-dihydro-1H-pyrazolo[4,3-c]pyridin-3-yl}amino)-1,1-dioxido-1,2-benzisothiazol-2(3H)-yl]acetate]
0.06	0.27	COC(=O)N1CCC(CC#N)(n2nc(Nc3ccc4c(c3)CN(CC3CC3)S4(=O)=O)c3c(=O)[nH]ccc32)CC1 [Example 5-74, methyl 4-(cyanomethyl)-4-(3-{[2-(cyclopropylmethyl)-1,1-dioxo-2,3-dihydro-1,2-benzothiazol-5-yl]amino}-4-oxo-1H,4H,5H-pyrazolo [4,3-c]pyridin-1-yl) piperidine-1-carboxylate]
0.04	0.06	CC(C)(C)N1Cc2cc(Nc3nn([C@]4(CC#N)CCOC[C@@H]4F)c4cc[nH]c(=O)c34)ccc2S1(=O)=O (single isomer, unassigned) [Example 5-256, 2-((3R,4R or 3S,4S)-4-(3-((2-(tert-butyl)-1,1-dioxido-2,3-dihydrobenzo[d]isothiazol-5-yl)amino)-4-oxo-4,5-dihydro-1H-pyrazolo[4,3-c]pyridin-1-yl)-3-fluorotetrahydro-2H-pyran-4-yl)acetonitrile]
